The test system of data set [1] is fetal globin. Description: Fetal globin production in erythroid progenitor colonies (Bfu-e), sickle cell anemia patient. Type of data set: cell-based, human. As to conditions: controls 48% of non-α globin.
Data set [2] has as its system fetal globin. Description: Proportion of fetal globin-expressing cells in culture, fluorescent antibodies, sickle cell patient. In kind it is cell-based, human. As to conditions: 14 days, controls 40.7%. As to the method: In a fourth experiment, erythroid cells were obtained from a sickle cell patient. These cells were established in culture both with and without test a variety of test compounds. Cultures were incubated for 14 days in methylcellulose media with maximal concentrations of all hematopoietic growth factors (GM-CSF, SCF, EPO). Colonies were analyzed using fluorescent monoclonal antibodies against fetal globin to determine the proportion of erythroid cells that expressed fetal globin.

In data set [3] the test system is system A transport of amino acids. As to the kind of experiment: Uptake of 3H-methyl-aminoisobutyric acid (MeAIB) into erythroblasts. In kind it is cell-based. As to conditions: for amino acid (MeAIB) uptake / transport: 2.0 mM, relative to untreated fetal liver erythroid cells; for inhibition of MeAIB uptake: after 60 and 120 minutes. The method, then: Erythroblasts were tested for alterations in uptake of radio-labelled amino acid (^3H-methyl-aminoisobutyric acid; MeAIB) in the presence of AB (arginine butyrate), AMHCA (α-methylhydrocinnamic acid), PAA (phenoxyacetic acid), and IBT (isobutyramide), each at 2.0 mM.

The subject of another data set is Bfu-e. Description: Erythroid colony (Bfu-e) proliferation with maximal growth factors, normal subject. The note with it: 0.2-0.5 mM where given. In kind it is cell-based, human. The text has this: Erythroid cells were obtained, as described in Example 1, from a normal subject and cultured on semi-solid medium in the presence of a maximal amount of erythroid growth factors including IL-6, GM-CSF, SCF and EPO. Erythroid proliferation in the presence of these factors is expected to be maximal and, therefore, any increases observed would be significant.

In another data set the test system is human fetal liver cells. Description: Erythroid progenitor colony proliferation, fetal liver cells. In kind it is cell-based. As to conditions: 0.2 mM, maximal growth factors, p<0.025. As to the method: In a third experiment, human fetal liver cells were also tested. As fetal cells are known not to respond to the presence of the growth factors, any increases observed are highly significant. Erythroid progenitor cultures were established from fetal liver and plated with maximal amounts of growth factors. To these plates were added; lane 1, 2-(4′-methoxyphenoxy) propionic acid; lane 2, phenoxyacetic acid; and lane 3, α-methylhydrocinnamic acid; all at a concentration of 0.2 mM.

For data set [4], the system named is K562 human erythroleukemia cells. The note with it: cited from earlier work.
Data set [5] can be described thus: DNA fragmentation assays (cell viability). In kind it is cell-based. The text has this: Normal cell viability, the viability of an untransformed or uninfected cell, can be determined from analyzing the effects of the composition on one or more biological processes of the cell. Detrimental interference with one or more of these cellular processes becomes significant when the process becomes abnormal. Examples of quantitatable and qualifiable biological processes include the processes of cell division, protein synthesis, nucleic acid (DNA or RNA) synthesis, nucleic acid (principally DNA) fragmentation and apoptosis. Others processes include specific enzyme activities, the activities of the cellular transportation systems such as the transportation of amino acids by system A (neutral), system B (acidic) or system C (basic), and the expression of a cell surface protein. […] Abnormal cell division, for example, can be mitosis which occurs too rapidly, as in a malignancy, or unstably, resulting in programmed cell death or apoptosis, detected by increased DNA degradation. The determination of abnormal cell viability can be made on comparison with untreated control cells. Compositions preferably increase normal cell viability. Increased cell viability can be determined by those of ordinary skill in the art using, for example, DNA fragmentation analysis. […] Determinations of increased or decreased viability can also be concluded from an analysis of the results of multiple different assays. Where multiple tests provide conflicting results, accurate conclusions can still be drawn by those of ordinary skill based upon the cell type, the correctness or correlation of the tests with actual conditions and the type of composition.
Patients with blood disorders are typically quite infirm with, for example, iron damaged organs and systems. Most treatments further tax the patient's already frail health in an effort to combat the disorder.

The next data set deals with γ-globin expression. Description: γ-globin mRNA by RNase protection in erythroid cell cultures of normal individuals. In kind it is cell-based, human. The note with it: for x increase: over ChFCS.

Experimental for γ-globin expression: Fetal globin production was determined in erythroid progenitor cells cultured in the presence or absence of test compositions. Erythroid cells were purified from blood obtained from a normal individual . […] Erythroid cell cultures were established with the following conditions: IMDM methylcellulose media, erythropoietin (3 U/ml), the human subjects' mononuclear cells, 30% charcoal-absorbed fetal calf serum, and the test compounds at varying micromolar concentrations.
Compounds were tested for their ability to induce expression of fetal globin expression in erythroid cell cultures established from the peripheral blood of normal individuals. Colonies were harvested and assayed for globin mRNA following 14 days of culture. Each compound was tested in duplicate cultures from 2-4 individual human subjects. Globin expression was quantitated by RNase protection assay for % gamma globin as a fraction of total non-alpha globin (% gamma/gamma+beta globin mRNA).

With `CCC(C)(C)C(=O)O` [2,2-dimethylbutyric acid], the “increase in fetal globin over controls” value in the data set with fetal globin [1] is on record as 24%. Also, the “Increase in γ-Globin Expressing Cells” value in the data set on fetal globin [2] (concentration not given) was 70.1%. Besides, in data set [3], the “amino acid (MeAIB) uptake / transport” value is given as “moderate inhibition of transport” and the “inhibition of MeAIB uptake” value is “somewhat less so”.

On to diethyl butyric acid, for which the “amino acid (MeAIB) uptake / transport” value in data set [3] is “did not inhibit amino acid transport”.

For `CC(Cc1ccccc1)C(=O)O` (stereo not drawn) [α-methylhydrocinnamic acid], the “increase in fetal globin over controls” value with fetal globin [1] was 18%. Further, the Bfu-e growth result with Bfu-e was “further increase Bfu-e growth”. Moreover, the proliferation of colonies result in the data set with human fetal liver cells was “increased proliferation of colonies”. The “Increase in γ-Globin Expressing Cells” value in the data set with fetal globin [2] (concentration not given) was 64.4%. For the same molecule, in data set [3], the “system A transport of amino acids” value was “do not significantly alter system A transport of amino acids” and the “amino acid (MeAIB) uptake / transport” value is recorded as “did not inhibit amino acid transport”.

Consider `CCCCCCCC(=O)O` [caprylate], for which the “ability to increase fetal globin expression” value in data set [4] is reported as “much less of an effect”.

On to `COc1ccc(OC(C)C(=O)O)cc1` (centres unmarked) [2-(4′-methoxyphenoxy) propionic acid], for which, in the data set with Bfu-e, the Bfu-e growth result is on record as “further increase Bfu-e growth”. Also, the proliferation of colonies entry in the data set with human fetal liver cells is given as “increased proliferation of colonies”. In addition, in data set [3], the “amino acid (MeAIB) uptake / transport” value is reported as “moderate inhibition of transport” and the “inhibition of MeAIB uptake” value is on record as “somewhat less so”.

Regarding `COCC(=O)O` [methoxyacetic acid], the “increase in fetal globin over controls” value with fetal globin [1] turned out to be 3%.

On to `CCCCCCCCCC(=O)O` [caprate], for which the “ability to increase fetal globin expression” value in data set [4] was “much less of an effect”.

As for `CC(Oc1ccc(Cl)cc1)C(=O)O` (centres unmarked) [4-chlorophenoxy-2-propionic acid], the Bfu-e growth entry in the data set with Bfu-e is reported as “further increase Bfu-e growth”. Further, the “Increase in γ-Globin Expressing Cells” value with fetal globin [2] (0.5 mM) came out at 59.7%.

`O=C(O)CSc1ccccc1` [thiophenoxyacetic acid]: the “increase in fetal globin over controls” value with fetal globin [1] came out at 38%.

`CC(C)C(N)=O` [isobutyramide]: the “cell viability in DNA fragmentation assays” value in data set [5] is recorded as “decrease cell viability”.

Consider `CCCC(=O)OCC` [butyric acid ethyl ester], for which the “DNA fragmentation in fragmentation assays” value in data set [5] is “reduce DNA fragmentation”.

`CCOC(=O)/C=C/C(=O)O` [fumaric acid monoethyl ester]: in the data set on fetal globin [2] (concentration not given), the “Increase in γ-Globin Expressing Cells” value is given as 59.1%. Moreover, in data set [3], the “amino acid (MeAIB) uptake / transport” value is “did not inhibit amino acid transport”.

In the case of `CC(=Cc1ccccc1)C(=O)O` [α-methylcinnamic acid], the “increase in fetal globin over controls” value in the data set with fetal globin [1] was 12%.

On to `CCCCCC(=O)[O-].CCCCCC(=O)[O-].[Ca+2]` [caproate], for which, in data set [4], the “ability to increase fetal globin expression” value was “much less of an effect”.

As for `CCC(=O)NO` [propionyl hydroxamate], the x increase with γ-globin expression (1 μM, 990709) was found to be 1.1 x; in the data set with γ-globin expression (8 μM, 990709), 0.9 x; with γ-globin expression (10 μM, 990709), 1.5 x; in the data set on γ-globin expression (25 μM, 991208), 1.5 x; in the data set on γ-globin expression (50 μM, 0601-0), 2.5 x; in the data set on γ-globin expression (50 μM, 990709) it was 3.0 x. Moreover, the x increase turned out to be 2.5 x in the data set on γ-globin expression (50 μM, 991208); 4.8 x in the data set on γ-globin expression (100 μM, 0601-0); 4.6 x in the data set with γ-globin expression (100 μM, 990709); 4.3 x in the data set with γ-globin expression (100 μM, 991208); 4.7 x with γ-globin expression (125 μM, 991208); 6.3 x in the data set with γ-globin expression (150 μM, 0601-0). For the same molecule, the x increase in the data set with γ-globin expression (150 μM, 991208) was determined as 6.7 x. In addition, the “γ/γ + β” value in the data set with γ-globin expression (1 μM, 990709, subject 99-4) is 1.39%; with γ-globin expression (1 μM, 990709, subject 99-5) it was 2.39%; with γ-globin expression (8 μM, 990709, subject 99-4), 1.19%; in the data set on γ-globin expression (8 μM, 990709, subject 99-5) it was 1.73%; in the data set with γ-globin expression (10 μM, 990709, subject 99-4), 1.86%; with γ-globin expression (10 μM, 990709, subject 99-5) it was 3.28%. The “γ/γ + β” value turned out to be 12.17% with γ-globin expression (25 μM, 991208, subject 00-1); 12.38% in the data set with γ-globin expression (25 μM, 991208, subject 00-3); 9.57% in the data set on γ-globin expression (50 μM, 0601-0, subject 00-3); 3.80% in the data set on γ-globin expression (50 μM, 990709, subject 99-4); 6.40% with γ-globin expression (50 μM, 990709, subject 99-5); 20.79% with γ-globin expression (50 μM, 991208, subject 00-1). Also, the “γ/γ + β” value in the data set with γ-globin expression (50 μM, 991208, subject 00-3) was determined as 21.30%; with γ-globin expression (100 μM, 0601-0, subject 00-3), 16.66%; in the data set on γ-globin expression (100 μM, 990709, subject 99-4), 7.78%; in the data set on γ-globin expression (100 μM, 990709, subject 99-5), 8.80%; in the data set on γ-globin expression (100 μM, 991208, subject 00-1) it was 32.74%; in the data set on γ-globin expression (100 μM, 991208, subject 00-3), 38.33%. In addition, the “γ/γ + β” value in the data set with γ-globin expression (125 μM, 991208, subject 00-1) is 37.83%; in the data set on γ-globin expression (125 μM, 991208, subject 00-3), 39.14%; in the data set with γ-globin expression (150 μM, 0601-0, subject 00-3), 24.40%; in the data set with γ-globin expression (150 μM, 991208, subject 00-1), 59.60%; in the data set on γ-globin expression (150 μM, 991208, subject 00-3), 51.56%. For the same molecule, the “γ/γ + β mean” value in the data set with γ-globin expression (1 μM, 990709, subjects 99-4, 99-5) worked out at 1.89%; with γ-globin expression (8 μM, 990709, subjects 99-4, 99-5), 1.46%; in the data set with γ-globin expression (10 μM, 990709, subjects 99-4, 99-5) it was 2.57%; with γ-globin expression (25 μM, 991208, subjects 00-1, 00-3), 12.27%; with γ-globin expression (50 μM, 0601-0, subject 00-3 only), 9.57%; with γ-globin expression (50 μM, 990709, subjects 99-4, 99-5), 5.10%. The “γ/γ + β mean” value with γ-globin expression (50 μM, 991208, subjects 00-1, 00-3) is 21.05%; with γ-globin expression (100 μM, 0601-0, subject 00-3 only), 16.66%; in the data set on γ-globin expression (100 μM, 990709, subjects 99-4, 99-5), 7.72%; in the data set with γ-globin expression (100 μM, 991208, subjects 00-1, 00-3) it was 35.54%; in the data set on γ-globin expression (125 μM, 991208, subjects 00-1, 00-3) it was 38.49%; in the data set on γ-globin expression (150 μM, 0601-0, subject 00-3 only) it was 24.40%. Further, the “γ/γ + β mean” value in the data set on γ-globin expression (150 μM, 991208, subjects 00-1, 00-3) came out at 55.58%. In addition, the “fetal (gamma) globin expression, fold over control cultures” value in the data set on γ-globin expression (5 to 150 micromolar) is recorded as 1.5-6.7 fold.

(Values after US6403647B1, “Pulsed administration of compositions for the treatment of blood disorders” (priority 1996, dated 2002).)
